Measured values published in patent US7432392B2, “Ester derivatives and medical use thereof” (Japan Tobacco Inc., priority 2003, dated 2008).

What was measured:
[1] = target: T1, Microsomal triglyceride transfer protein (MTP) from bovine liver (Bos taurus, UniProt P55156); experiment: Inhibition of interliposomal triglyceride (TG) transfer activity by MTP; assay type: biochemical; conditions: MTP-mediated TG transfer between donor and acceptor liposomes, 37° C., one hour
T1 construct: the purified MTP was used for the test; from tissue; host or cells: bovine liver
T1 sequence (P55156 12-887): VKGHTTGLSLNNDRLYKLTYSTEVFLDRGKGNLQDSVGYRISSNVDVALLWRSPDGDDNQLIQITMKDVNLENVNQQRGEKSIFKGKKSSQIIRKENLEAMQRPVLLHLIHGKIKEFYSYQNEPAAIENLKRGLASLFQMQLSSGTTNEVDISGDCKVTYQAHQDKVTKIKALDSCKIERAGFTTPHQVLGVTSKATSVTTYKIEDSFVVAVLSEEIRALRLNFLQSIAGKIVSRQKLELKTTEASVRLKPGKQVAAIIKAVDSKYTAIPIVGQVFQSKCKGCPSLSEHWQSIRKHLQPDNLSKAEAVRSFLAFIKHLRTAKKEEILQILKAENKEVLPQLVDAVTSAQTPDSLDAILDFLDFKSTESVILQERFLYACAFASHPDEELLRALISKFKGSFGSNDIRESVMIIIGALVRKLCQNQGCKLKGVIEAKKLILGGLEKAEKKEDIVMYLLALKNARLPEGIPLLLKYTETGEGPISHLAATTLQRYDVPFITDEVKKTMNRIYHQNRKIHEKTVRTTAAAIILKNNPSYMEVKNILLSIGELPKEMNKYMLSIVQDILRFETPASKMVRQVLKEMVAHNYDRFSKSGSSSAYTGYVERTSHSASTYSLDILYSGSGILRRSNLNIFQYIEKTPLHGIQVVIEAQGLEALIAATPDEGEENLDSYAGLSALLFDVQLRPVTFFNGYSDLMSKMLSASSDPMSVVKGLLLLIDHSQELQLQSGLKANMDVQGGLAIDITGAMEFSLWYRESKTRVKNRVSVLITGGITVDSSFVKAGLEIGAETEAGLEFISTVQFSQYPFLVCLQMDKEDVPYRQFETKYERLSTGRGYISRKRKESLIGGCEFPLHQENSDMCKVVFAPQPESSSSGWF
T1 sequence (P05307 21-510 partner): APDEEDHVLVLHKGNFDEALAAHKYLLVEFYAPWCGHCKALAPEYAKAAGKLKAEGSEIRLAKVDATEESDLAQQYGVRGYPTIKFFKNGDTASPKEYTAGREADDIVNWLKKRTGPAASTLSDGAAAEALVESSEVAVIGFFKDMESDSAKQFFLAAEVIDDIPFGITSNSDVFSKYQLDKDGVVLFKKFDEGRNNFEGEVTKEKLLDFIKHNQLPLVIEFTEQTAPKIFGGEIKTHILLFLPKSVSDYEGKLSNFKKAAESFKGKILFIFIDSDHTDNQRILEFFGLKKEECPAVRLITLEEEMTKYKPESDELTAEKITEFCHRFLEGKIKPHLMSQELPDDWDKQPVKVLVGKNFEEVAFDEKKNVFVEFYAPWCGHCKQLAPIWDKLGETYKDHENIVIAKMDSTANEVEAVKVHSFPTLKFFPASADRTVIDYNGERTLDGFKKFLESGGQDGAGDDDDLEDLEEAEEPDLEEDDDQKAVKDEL
Description: Microsomal triglyceride transfer protein (MTP) from bovine liver was partially purified in such a way described below. A buffer (50 mM Tris, 250 mM sucrose, 1 mM EDTA, 0.02% NaN3 (pH 7.4)) for making a homogenate preparation was added to bovine liver, and the mixture was homogenated under ice-cooling, then centrifuged at 10,000×g (4° C., 30 minutes) The supernatant was adjusted to pH 5.1 with hydrochloric acid, and stirred for 30 minutes. The solution was further centrifuged at 10,000×g (4° C., 30 minutes), and 1 mM Tris buffer was added to the precipitated residue, and the mixture was adjusted to pH 8.6 with sodium hydroxide. After addition of 2.7 M ammonium sulfate solution, the mixture was stirred for 30 minutes, then centrifuged at 10,000×g (4° C., 40 minutes). The resulting supernatant was served as a crude extraction fraction of MTP and stored at −80° C. under freezing. In its practical use, the crude extraction fraction of MTP was purified by column chromatography on diethylaminoethyl (DEAE) Sepharose using FPLC (Fast Performance Liquid Chromatography) system, and the purified MTP was used for the test.
Small unilamellar-vesicle (SUV) liposome (donor, 0.25 mol % triolein, 5 mol % cardiolipin) labeled with ^14C-triolein and non-labeled SUV liposome (acceptor, 0.25 mol % triolein) were prepared. A fixed amount of donor and acceptor, and MTP were mixed with a sample dissolved in DMSO or with DMSO. The mixture was incubated in a 15 mM Tris hydrochloride buffer (pH 7.4) containing 40 mM sodium chloride, 1 mM EDTA (ethylenediaminetetraacetic acid), 0.02% NaN3 and 0.5% bovine serum albumin at 37° C. for one hour. After completion of the incubation, a suspension of DEAE cellulose (50% v/v) in 15 mM Tris hydrochloride buffer (pH 7.4) was added to the above solution, and the mixture was centrifuged to separate the donor and the acceptor. The radioactivity in the acceptor was measured by liquid scintillation counter. The value obtained by subtracting the radioactivity in the blank from the amount of radioactivity in the acceptor of a DMSO group was determined as MTP-mediated TG transfer activity, and it was compared with the value obtained by subtracting the radioactivity in the blank from the radioactivity in a sample group. The blank was prepared by adding 15 mM Tris-HCl buffer (pH 7.4) in place of MTP. Inhibition rate (%) was calculated from the values obtained according to the following equation.
Inhibition rate (%)=100×(1 minus ((radioactivity of sample group minus radioactivity of blank group)/(radioactivity of DMSO group minus radioactivity of blank group))). 50% Inhibition rate (IC50) was determined on the basis of the above equation.

[2] = test system: apolipoprotein B secretion from HepG2 cells; experiment: Inhibition of apolipoprotein B secretion from HepG2 cells; assay type: cell-based; conditions: Homo sapiens, about 20 hours incubation, apo B in supernatant by ELISA
Description: HepG2 cells were suspended in Dulbecco's Modified Eagle's Medium (DMEM) (containing 10% fetal bovine serum, 100 units/mL penicillin and 100 μg/mL streptomycin), and placed on a 96-well plate (4×10^4 cells/well), then incubated for 24 hours. After removal of the medium, DMEM was replaced by a medium containing a sample dissolved in DMSO or a medium containing DMSO (concentration of DMSO: 0.5%) and incubation was further performed for about 20 hours, after which the supernatant was recovered, and concentration of apo B in the supernatant was assayed by Enzyme-Linked Immunosorbent Assay (ELISA)
ELISA was carried out as follows. Anti-human apo B monoclonal antibody (0.5 μg/well) diluted with a 50 mM sodium carbonate/sodium bicarbonate buffer was placed in a 96-well plate for ELISA, and allowed to stand at room temperature for 15 hours. After washing the plate, a blocking solution (250 μL/well) was placed in the well, and allowed to stand at room temperature for 1.5 hours. After washing the plate, a standard and a sample (100 μL/well) were placed in the well and allowed to stand at room temperature for 1.5 hours. The standard was prepared by adjusting the concentration of the purified human apo B with the DMEM to 0 to 250 ng/mL. After washing the plate, an anti-human apo B polyclonal antibody labeled with a horse radish peroxidase which was diluted in 1:1000 with DEME (100 μL/well) was added, and allowed to stand at room temperature for 1.5 hours. After washing the plate, 2,2-azinobis(3-ethylbenzothiazoline-6-sulfonic acid) solution (100 μL/well) was placed in the well, and allowed to stand at room temperature for 0.5 hour. The reaction was stopped by addition of 2% oxalic acid (100 μL/well), and absorbency at 405 nm was measured. Concentration of apo B in the sample was calculated on the basis of a standard curve of the standard. Inhibition rate (%) was calculated from the assayed values in accordance with the following equation. Inhibition rate (%)=100×(1 minus (concentration of apo B in sample group/concentration of apo B in DMSO group).
Based on the above equation, 50% inhibition concentration (IC50) was determined.

| SMILES | IC50 [1] | IC50 [2] | melting point |
| --- | --- | --- | --- |
| CCOC(=O)C(COC(=O)Cc1ccc(NC(=O)c2ccccc2-c2ccc(C(F)(F)F)cc2)c(OC(=O)COC)c1)(C(=O)OCC)c1ccccc1 [Example 1-3] | < 0.01 µM | < 1 µM | – |
| CCOC(=O)C(COC(=O)Cc1ccc(NC(=O)c2ccccc2-c2ccc(C(F)(F)F)cc2)c(OC(=O)CC)c1)(C(=O)OCC)c1ccccc1 [Example 1-2] | < 0.01 µM | < 1 µM | – |
| CCOC(=O)C(COC(=O)COc1ccc(NC(=O)c2ccccc2-c2ccc(C(F)(F)F)cc2)c(C(=O)N(C)C)c1)(C(=O)OCC)c1ccccc1 [Example 3-2, 2-(2-{3-Dimethylcarbamoyl-4-[(4′-trifluoromethylbiphenyl-2-carbonyl)amino]phenoxy}acetoxymethyl)-2-phenylmalonic acid diethyl ester] | < 0.01 µM | – | 132 to 138 °C |
| CCOC(=O)C(COC(=O)Oc1c(F)cc(NC(=O)c2ccccc2-c2ccc(C(F)(F)F)cc2)c(OC(=O)N(C)C)c1F)(C(=O)OCC)c1cccs1 [Example 2-50] | 0.01 to 0.1 µM | – | – |
| CCOC(=O)C(COC(=O)Oc1c(F)cc(NC(=O)c2ccccc2-c2ccc(C(F)(F)F)cc2)c(OC)c1F)(C(=O)OCC)c1cccs1 [Example 2-48] | < 0.01 µM | – | – |
| CCOC(=O)C(COC(=O)Oc1c(F)cc(NC(=O)c2ccc(C(F)(F)F)cc2-c2ccc(C(F)(F)F)cc2)c(C(=O)N(C)C)c1F)(C(=O)OCC)c1cccs1 [Example 2-32] | < 0.01 µM | – | – |
| CCOC(=O)C(COC(=O)Oc1ccc2c(c1)CCN2C(=O)c1ccccc1-c1ccc(C(F)(F)F)cc1)(C(=O)OCC)c1ccccc1 [Example 2-3] | 0.01 to 0.1 µM | – | – |
| CCOC(=O)C(COC(=O)Oc1ccc(NC(=O)c2cnc(NC)nc2-c2ccc(C(F)(F)F)cc2)c(C(=O)N(C)C)c1)(C(=O)OCC)c1ccccc1 [Example 2-27] | 0.01 to 0.1 µM | – | – |
| CCOC(=O)C(COC(=O)Oc1ccc(N(C)C(=O)c2ccccc2-c2ccc(C(F)(F)F)cc2)c(C(=O)N(C)C)c1)(C(=O)OCC)c1ccccc1 [Example 2-17] | 0.1 to 1 µM | – | – |
| CCOC(=O)C(COC(=O)Oc1c(F)cc(NC(=O)c2ccc(C)nc2-c2ccc(C(F)(F)F)cc2)c(C(=O)N(C)C)c1F)(C(=O)OCC)c1cccs1 [Example 2-30] | < 0.01 µM | – | – |

Continued, in another order:

| IC50 [1] | IC50 [2] | SMILES | melting point |
| --- | --- | --- | --- |
| 0.01 to 0.1 µM | – | CCN(C)C(=O)C(CCC(=O)Oc1c(F)cc(NC(=O)c2ccccc2-c2ccc(C(F)(F)F)cc2)c(C(=O)N(C)C)c1F)(C(=O)N(C)CC)c1ccccc1 [Example 3-18] | – |
| < 0.01 µM | – | CCOC(=O)C(COC(=O)Oc1cc(C(=O)N(C)C)c(NC(=O)c2ccccc2-c2ccc(C(F)(F)F)cc2)cc1Cl)(C(=O)OCC)c1ccccc1 [Example 2-6] | – |
| < 0.01 µM | – | CCOC(=O)C(COC(=O)Oc1c(F)cc(NC(=O)c2ccc(C)cc2-c2ccc(C(F)(F)F)cc2)c(C(=O)N(C)C)c1F)(C(=O)OCC)c1cccs1 [Example 2-29] | – |
| < 0.01 µM | – | CCOC(=O)C(COC(=O)Oc1c(F)cc(NC(=O)c2ccccc2-c2ccc(C(F)(F)F)cc2)c(C(=O)N(C)CCOC)c1F)(C(=O)OCC)c1cccs1 [Example 2-41] | – |
| 0.01 to 0.1 µM | < 10 µM | CCOC(=O)C(COC(=O)Cc1cccc(NC(=O)c2ccccc2-c2ccc(C(F)(F)F)cc2)c1OC(C)=O)(C(=O)OCC)c1ccccc1 [Example 1-4] | – |
| 0.1 to 1 µM | – | CCN(C)C(=O)C(CCCC(=O)Oc1c(F)cc(NC(=O)c2ccccc2-c2ccc(C(F)(F)F)cc2)c(C(=O)N(C)C)c1F)(C(=O)N(C)CC)c1ccccc1 [Example 3-19] | – |
